Data on 28 molecules can be found in patent US20240018145A1, “[…]-DEPENDENT EN[…] TREATING OR […]” (priority 2020, published 2024).

The assay concerns FLU A (PR/8/34). The assay is described as follows: Flu A Neuraminidase Antiviral Assay. The format is cell-based.

pEC50: −log10 of the molar value. Where two headings read alike, the source gives them in different places.

As a reminder, the pEC50 is the negative decadic logarithm of the EC50, by convention in mol/L. Low values mean a large EC50, high ones a small EC50. Molecule `CN1C(=O)c2c(O)c(=O)ccn2N2C1CCCC2(C)c1ccncc1` (single isomer, unassigned) [Compound 31A, 7-hydroxy-1,5-dimethyl-1-(pyridin-4-yl)-1,2,3,4,4a,5-hexahydrodipyrido[1,2-b:2′,1′-f][1,2,4]triazine-6,8-dione] gave a pEC50 of 6.55.
On the same count and under the same terms, the same measure for `CN1C(=O)c2c(O)c(=O)ccn2N2C(c3ccccc3)C(CCC(F)(F)F)CCC12C` (single isomer, unassigned) [Compound 78B, 7-hydroxy-4a,5-dimethyl-1-phenyl-2-(3,3,3-trifluoropropyl)-1,2,3,4,4a,5-hexahydrodipyrido[1,2-b:2′,1′-f][1,2,4]triazine-6,8-dione]: 8.54; for `O=C1c2c(O)c(=O)ccn2N2C(c3ccccc3)CCCC2N1CC1CC1` (single isomer, unassigned) [Compound 56A, 5-(cyclopropylmethyl)-7-hydroxy-1-phenyl-1,2,3,4,4a,5-hexahydrodipyrido[1,2-b:2′,1′-f][1,2,4]triazine-6,8-dione]: less than 5.09.
Where the note is “MDCK, 48 h”, `CN1C(=O)c2c(O)c(=O)ccn2N2C(c3ccccc3)[C@H]3CCCC[C@H]3C12` (stereo partly drawn) [Compound 16, (6bR,10aS)-4-hydroxy-6-methyl-11-phenyl-6a,6b,7,8,9,10,10a,11-octahydro-3H-pyrido[1′,2′:1,6][1,2,4]triazino[3,2-a]isoindole-3,5(6H)-dione] had a pEC50 of 5.39.
The molecule `Cc1ccccc1C1C(CC(F)(C(F)(F)F)C(F)(F)F)CCC2N(C)C(=O)c3c(O)c(=O)ccn3N12` (single isomer, unassigned) [Compound 81B, 7-hydroxy-5-methyl-2-(2,3,3,3-tetrafluoro-2-(trifluoromethyl)propyl)-1-(o-tolyl)-1,2,3,4,4a,5-hexahydrodipyrido[1,2-b:2′,1′-f][1,2,4]triazine-6,8-dione] gave a pEC50 of 6.13.
`COCCN1C(=O)c2c(O)c(=O)ccn2N2C(c3ccc(F)cc3)CCCC12` (single isomer, unassigned) [Compound 4A, 1-(4-fluorophenyl)-7-hydroxy-5-(2-methoxyethyl)-1,2,3,4,4a,5-hexahydrodipyrido[1,2-b:2′,1′-f][1,2,4]triazine-6,8-dione] gave a pEC50 (MDCK, 48 h) of less than 5.09.
As to `CN1C(=O)c2c(O)c(=O)ccn2N2C(c3ccccc3)C3CCCC(C3)C12` (single isomer, unassigned) [Compound 11B, 4-hydroxy-6-methyl-12-phenyl-6,6a,7,8,9,10,11,12-octahydro-7,11-methanopyrido[1′,2′:1,6][1,2,4]triazino[2,3-a]azocine-3,5-dione], the negative logarithm of the EC50 (pEC50) was less than 5.09.
Consider `CN1C(=O)c2c(O)c(=O)ccn2N2C1CCC(O)C2(C)c1ccccc1` (stereo not shown) [Compound 137B, 2,7-dihydroxy-1,5-dimethyl-1-phenyl-1,2,3,4,4a,5-hexahydrodipyrido[1,2-b:2′,1′-f][1,2,4]triazine-6,8-dione], for which the pEC50 was less than 5.09.
For `CN1C(=O)c2c(O)c(=O)ccn2N2C(c3ccccc3)C(CC(C)(F)F)CCC12` (single isomer, unassigned) [Compound 126A, 2-(2,2-difluoropropyl)-7-hydroxy-5-methyl-1-phenyl-1,2,3,4,4a,5-hexahydrodipyrido[1,2-b:2′,1′-f][1,2,4]triazine-6,8-dione], the pEC50 was less than 5.09.
With `CC1CC2N(C)C(=O)c3c(O)c(=O)ccn3N2C(C)(c2ccccc2)C1` (single isomer, unassigned) [Compound 43C, 7-hydroxy-1,3,5-trimethyl-1-phenyl-1,2,3,4,4a,5-hexahydrodipyrido[1,2-b:2′,1′-f][1,2,4]triazine-6,8-dione], the negative-log EC50 (pEC50) is 7.85.
Still for that read-out and setting: as for `CN1C(=O)c2c(O)c(=O)ccn2N2C(c3ccccc3)C3CCC(C3)C12` (single isomer, unassigned) [Compound 9D, 4-hydroxy-6-methyl-11-phenyl-6a,7,8,9,10,11-hexahydro-3H-7,10-methanopyrido[1′,2′:1,6][1,2,4]triazino[2,3-a]azepine-3,5(6H)-dione], the figure is less than 5.09.
As to `CC(=O)N(C)[C@H]1CC[C@@H](c2ccccc2)N2[C@@H]1N(C)C(=O)c1c(O)c(=O)ccn12` [Compound 145, N-((1S,4S,4aS)-7-hydroxy-5-methyl-6,8-dioxo-1-phenyl-1,2,3,4,4a,5,6,8-octahydrodipyrido[1,2-b:2′,1′-f][1,2,4]triazin-4-yl)-N-methylacetamide], under “MDCK, 48 h”, the pEC50 was less than 6.09.
`CCCC1CCC2N(C)C(=O)c3c(O)c(=O)ccn3N2C1c1ccccc1C` (single isomer, unassigned) [Compound 92B, 7-hydroxy-5-methyl-2-propyl-1-(o-tolyl)-1,2,3,4,4a,5-hexahydrodipyrido[1,2-b:2′,1′-f][1,2,4]triazine-6,8-dione] had a negative-log EC50 (pEC50) of 8.48.
Molecule `CN1C(=O)c2c(O)c(=O)ccn2N2C(c3ccccc3)C(O)CCC12` (stereo not shown) [Compound 136B, 2,7-dihydroxy-5-methyl-1-phenyl-1,2,3,4,4a,5-hexahydrodipyrido[1,2-b:2′,1′-f][1,2,4]triazine-6,8-dione] gave a pEC50 of less than 5.09.
On the same count and under the same terms, as for `CN1C(=O)c2c(O)c(=O)ccn2N2C1CCCC2(C)c1cccc(Cl)c1` (single isomer, unassigned) [Compound 28B, 1-(3-chlorophenyl)-7-hydroxy-1,5-dimethyl-1,2,3,4,4a,5-hexahydrodipyrido[1,2-b:2′,1′-f][1,2,4]triazine-6,8-dione], the figure is 6.56; as for `CC1(c2cc(C(F)(F)F)ccn2)CCCC2N(CC3(C(F)(F)F)CC3)C(=O)c3c(O)c(=O)ccn3N21` (single isomer, unassigned) [Compound 52B, 7-hydroxy-1-methyl-5-((1-(trifluoromethyl)cyclopropyl)methyl)-1-(4-(trifluoromethyl)pyridin-2-yl)-1,2,3,4,4a,5-hexahydrodipyrido[1,2-b:2′,1′-f][1,2,4]triazine-6,8-dione], less than 5.57.
`Cc1ccc(C2(C)CCCC3N(CC(F)(F)F)C(=O)c4c(O)c(=O)ccn4N32)nc1` (single isomer, unassigned) [Compound 49B, 7-hydroxy-1-methyl-1-(5-methylpyridin-2-yl)-5-(2,2,2-trifluoroethyl)-1,2,3,4,4a,5-hexahydrodipyrido[1,2-b:2′,1′-f][1,2,4]triazine-6,8-dione] showed a pEC50 of 7.58.
With `CN1C(=O)c2c(O)c(=O)ccn2N2C1CCC1(CCC(F)(F)C1)C2c1ccccc1` (single isomer, unassigned) [Compound 68A, 3,3-difluoro-7′-hydroxy-5′-methyl-1′-phenyl-3′,4′,4a′,5′-tetrahydro-1′H-spiro[cyclopentane-1,2′-dipyrido[1,2-b:2′,1′-f][1,2,4]triazine]-6′,8′-dione], under “MDCK, 48 h”, the pEC50 was 6.46.
Turning to `CCC1(c2ccccc2)CCC2N(C)C(=O)c3c(O)c(=O)ccn3N21` (single isomer, unassigned) [Compound 62C, 1-ethyl-6-hydroxy-4-methyl-1-phenyl-2,3,3a,4-tetrahydro-1H-pyrido[2,1-f]pyrrolo[1,2-b][1,2,4]triazine-5,7-dione], the pEC50 is 5.13.
With `CCC1(c2ccccc2)CCC2N(C)C(=O)c3c(O)c(=O)ccn3N21` (stereo not shown) [Compound 62A, 1-ethyl-6-hydroxy-4-methyl-1-phenyl-2,3,3a,4-tetrahydro-1H-pyrido[2,1-f]pyrrolo[1,2-b][1,2,4]triazine-5,7-dione], the pEC50 (MDCK, 48 h) is less than 5.09.
`CC1CC(c2ccccc2)N2C(C1)N(C)C(=O)c1c(O)c(=O)ccn12` (single isomer, unassigned) [Compound 6B, 7-hydroxy-3,5-dimethyl-1-phenyl-1,2,3,4,4a,5-hexahydrodipyrido[1,2-b:2′,1′-f][1,2,4]triazine-6,8-dione] gave a pEC50 of 5.11.
Still for that read-out and setting: the same measure for `CC1(c2ccccc2)CCCC2N(CC3COC3)C(=O)c3c(O)c(=O)ccn3N21` (single isomer, unassigned) [Compound 40B, 7-hydroxy-1-methyl-5-(oxetan-3-ylmethyl)-1-phenyl-1,2,3,4,4a,5-hexahydrodipyrido[1,2-b:2′,1′-f][1,2,4]triazine-6,8-dione]: less than 5.09; for `Cc1ccccc1C1C(CCC(F)F)CCC2N(C)C(=O)c3c(O)c(=O)ccn3N12` (single isomer, unassigned) [Compound 103A, 2-(3,3-difluoropropyl)-7-hydroxy-5-methyl-1-(o-tolyl)-1,2,3,4,4a,5-hexahydrodipyrido[1,2-b:2′,1′-f][1,2,4]triazine-6,8-dione]: less than 6.09.
For `COc1c2n(ccc1=O)N1C(c3ccccc3)C(SC(C)C)CCC1N(C)C2=O` (stereo not shown) [Compound 146A, 2-(isopropylthio)-7-methoxy-5-methyl-1-phenyl-1,2,3,4,4a,5-hexahydrodipyrido[1,2-b:2′,1′-f][1,2,4]triazine-6,8-dione], the pEC50 is 7.73.
Molecule `CN1C(=O)c2c(O)c(=O)ccn2N2C(c3cccc(Br)c3)C(CC(F)(F)F)CCC12` (single isomer, unassigned) [Compound 83B, 1-(3-bromophenyl)-7-hydroxy-5-methyl-2-(2,2,2-trifluoroethyl)-1,2,3,4,4a,5-hexahydrodipyrido[1,2-b:2′,1′-f][1,2,4]triazine-6,8-dione] showed a pEC50 of 8.66.
The same measure, in the same setting: as for `CN1C(=O)c2c(O)c(=O)ccn2N2C1CCC1(CCCC(F)(F)C1)C2c1ccccc1` (single isomer, unassigned) [Compound 75C, 3,3-difluoro-7′-hydroxy-5′-methyl-1′-phenyl-3′,4′,4a′,5′-tetrahydro-1′H-spiro[cyclohexane-1,2′-dipyrido[1,2-b:2′,1′-f][1,2,4]triazine]-6′,8′-dione], the figure is 6.85.
In turn, `Cc1cccc(F)c1C1C(CC(F)(F)F)CCC2N(C)C(=O)c3c(O)c(=O)ccn3N12` (single isomer, unassigned) [Compound 77A, 1-(2-fluoro-6-methylphenyl)-7-hydroxy-5-methyl-2-(2,2,2-trifluoroethyl)-1,2,3,4,4a,5-hexahydrodipyrido[1,2-b:2′,1′-f][1,2,4]triazine-6,8-dione] gave a pEC50 of 8.48.
The molecule `CN1C(=O)c2c(O)c(=O)c(-c3nnn[nH]3)cn2N2C(c3ccccc3)C(CC(F)(F)F)CCC12` (stereo not shown) [Compound 134, 7-hydroxy-5-methyl-1-phenyl-9-(1H-tetrazol-5-yl)-2-(2,2,2-trifluoroethyl)-1,2,3,4,4a,5-hexahydrodipyrido[1,2-b:2′,1′-f][1,2,4]triazine-6,8-dione] showed a pEC50 (MDCK, 48 h) of 6.34.
